Data set [1] has as its system Splenocyte. The data set can be described thus: Immunosuppressant activity in mouse splenocytes by mixed-leukocyte reaction assay. Format: functional, cell-based.
A short description of data set [2]: Mean residence time (infinity) in BALB/c mouse at 1 mg/kg, po. To be noted: in vivo. Format: ADME, organism-based. More on the design: dose 1 mg/kg, route oral.
Data set [3] is described as follows: Antiproliferative activity against B cells. The data set is classed as cell-based. Particulars: b-cell.
A short description of data set [4]: Antiproliferative activity against BMDM cells. Format: cell-based.
The nature of data set [5]: Antiproliferative activity against T cells. Format: cell-based. Particulars: t-cell.
The species named for data set [6] is Mus musculus. The data set can be described thus: Immunosuppressant activity in C57BL/6 mouse assessed as inhibition of DNCB-induced cytokine release by local lymph node assay. The data set is classed as functional, organism-based.
Data set [7] deals with B-cell. The data set can be described thus: Antiproliferative activity against LPS-induced B cells. The data set is classed as functional, cell-based.
Data set [8] is described as follows: Clearance in BALB/c mouse at 0.5 mg/kg, iv. The data set is classed as ADME, organism-based. Particulars: in vivo. More on the design: dose 0.5 mg/kg, route intravenous.
A short description of data set [9]: Mean residence time (infinity) in BALB/c mouse at 0.5 mg/kg, iv. Format: ADME, organism-based. More on the design: dose 0.5 mg/kg, route intravenous. To be noted: in vivo.
The subject of data set [10] is T-cell. The data set can be described thus: Antiproliferative activity against ConA-induced T cells. Format: functional, cell-based.
A short description of data set [11]: Immunosuppressant activity in chicken B-lymphocyte activated splenic lymphocytes assessed as inhibition of LPS-induced cell proliferation by [3H]thymidine incorporation assay. Particulars: Gallus gallus. The data set is classed as functional. On the technique in general: Incorporation of labelled thymidine or its analogues reports DNA synthesis.
Data set [12] can be described thus: Antiproliferative activity against bone marrow-derived dendritic cells. Format: cell-based. To be noted: dendritic cell.
Data set [13] is described as follows: AUC (0 to infinity) in BALB/c mouse at 1 mg/kg, po. Format: ADME, organism-based. More on the design: time infinity, dose 1 mg/kg, route oral. To be noted: plasma.
The nature of data set [14]: Tmax in BALB/c mouse at 1 mg/kg, po. The data set is classed as ADME, organism-based. More on the design: dose 1 mg/kg, route oral. To be noted: in vivo.
Data set [15] can be described thus: AUC (0 to infinity) in BALB/c mouse at 0.5 mg/kg, iv. Format: ADME, organism-based. Set-up: time infinity, dose 0.5 mg/kg, route intravenous. Particulars: plasma.
Data set [16] in a line: Oral bioavailability in BALB/c mouse at 1 mg/kg. Format: ADME, organism-based. To be noted: in vivo.
The test system of data set [17] is Mus musculus. The data set can be described thus: Immunosuppressant activity in C57BL/6 mouse assessed as inhibition of carrageenan-induced paw edema. Format: functional, organism-based. Background: In the carrageenan paw model, swelling and tenderness develop within hours.
For data set [18], the system named is BMDM. The experiment in a line: Antiproliferative activity against LPS-induced BMDM cells. Format: functional, cell-based.
The species entered for data set [19] is Mus musculus. The data set can be described thus: Immunosuppressant activity in C57BL/6 mouse assessed as inhibition of zymosan A-induced arthritis. Format: functional, organism-based.
Data set [20] can be described thus: Immunosuppressant activity in chicken T-lymphocyte activated splenic lymphocytes assessed as inhibition of ConA-induced cell proliferation by [3H]thymidine incorporation assay. The data set is classed as functional. To be noted: Gallus gallus.
A short description of data set [21]: Volume of distribution at steady state in BALB/c mouse at 0.5 mg/kg, iv. The data set is classed as ADME, organism-based. Set-up: dose 0.5 mg/kg, route intravenous. Particulars: in vivo, read-out: Vdss.
A short description of data set [22]: Half life in BALB/c mouse at 0.5 mg/kg, iv. The data set is classed as ADME, organism-based. To be noted: in vivo. Set-up: dose 0.5 mg/kg, route intravenous.
Data set [23] can be described thus: Cmax in BALB/c mouse at 1 mg/kg, po. Format: ADME, organism-based. Set-up: dose 1 mg/kg, route oral. Particulars: in vivo.
The nature of data set [24]: Half life in BALB/c mouse at 1 mg/kg, po. The data set is classed as ADME, organism-based. Set-up: dose 1 mg/kg, route oral. Particulars: in vivo.
In data set [25] the test system is Dendritic cell. The data set can be described thus: Antiproliferative activity against LPS-induced bone marrow-derived dendritic cells. Format: functional, cell-based.
Data set [26] can be described thus: Solubility of the compound in presence of 20% serum. The data set is classed as physicochemical.
The mark [27] stands for this setting: Mus musculus, Splenocyte, read-out: IC50.

Each structure is given as a SMILES string. In brackets after ≈: the same amount, converted by molar mass. Activity calls are given as the source filed them. The calls are words filed in the database; no cut-off is given here.

19 compounds from ChEMBL document CHEMBL2163345, “Part II. Development of novel colchicine-derived immunosuppressants with improved pharmacokinetic properties” (Bioorg Med Chem Lett, 2012) can be followed below.

Usually IC50 stands for the concentration that gives 50% inhibition. As a reminder, the MRT inf is the average time that molecules of a dose stay in the body. The term clearance denotes the volume of plasma or blood freed of the substance per unit of time. A high value points to a high capacity for elimination. A word on the AUC(0-inf): it is the area under the concentration-time curve extrapolated to infinity. Read a high AUC(0-inf) as more exposure. By Tmax is commonly meant the time from dosing to the highest level. As a reminder, the bioavailability is dose-corrected exposure relative to a reference, in per cent. Usually half-life stands for how long it takes for the measured level to halve. Higher therefore signals slow decline. What is called Cmax is the maximum level reached in the sampled fluid or tissue. The term solubility denotes the concentration that dissolves in the medium under given conditions.

On to `COc1cc2c(c(OC)c1OC)-c1ccc(SC)c(=O)cc1[C@@H](NC(=O)C1C(C)N1C)CC2` (stereo not given in full), for which the IC50 in [1] (setting [27]) was 38 nM.
`C/C=C/C(=O)N[C@H]1CCc2cc(OC)c(OC)c(OC)c2-c2ccc(SC)c(=O)cc21`: in data set [1] (setting [27]), the IC50 was 67 nM.
Still for that read-out and setting: to `C/C=C/CC(=O)N[C@H]1CCc2cc(OC)c(OC)c(OC)c2-c2ccc(SC)c(=O)cc21` belongs 1670 nM; to `COc1cc2c(c(OC)c1OC)-c1ccc(OC)c(=O)cc1[C@@H](NC(=O)C1CC1C)CC2` (stereo not given in full), 1250 nM.
On the same count and under the same terms, under `C=C(CC)C(=O)N[C@H]1CCc2cc(OC)c(OC)c(OC)c2-c2ccc(SC)c(=O)cc21` stands 86 nM; under `COc1cc2c(c(OC)c1OC)-c1ccc(SC)c(=O)cc1[C@@H](NC(=O)C1NC1C)CC2` (stereo not given in full), 46 nM.
For `COc1cc2c(c(OC)c1OC)-c1cccc(=O)cc1[C@@H](NC(=O)C1CC1C)CC2` (stereo not given in full), in [1] (splenocyte), the IC50 entry is recorded as “Not Active”.
As to `COc1cc2c(c(OC)c1OC)-c1ccc(SC)c(=O)cc1[C@@H](NC(=O)C1CC1C)CC2` (stereo not given in full), the MRT inf in data set [2] came out at 2.2 h; in data set [9], 36 min. Moreover, the Activity result in data set [3], in data set [4], in [5] and in data set [12] was “Non-toxic” in each case. For the same compound, the inhibition result in data set [6] was “Active”. Also, the result in data set [7], in [10], in data set [18] and in [25] was Active. In addition, the clearance in data set [8] was 41.7 mL/min/kg. Also, the IC50 in data set [11] came out at 5.9 ng/mL (≈ 0.013 µM); in [1] (setting [27]), 5 nM; in data set [20], 0.031 µg/mL (≈ 0.068 µM). Besides, the figures for the AUC(0-inf) in data set [13] and in [15] were 269 ng·h/mL and 200 ng·h/mL, respectively. The Tmax in data set [14] is 15 min. Further, in data set [16], the bioavailability was found to be 67.3%. Further, the inhibition entry in [17] and in [19] was “Dose-dependent effect” each time. The Vd in [21] is 1.6 L/kg. Also, the half-life in data set [22] and in data set [24] was 174 min in each case. In data set [23], this compound had a Cmax of 254 ng/mL.
`COc1cc2c(c(OC)c1OC)-c1ccc(SC)c(=O)cc1[C@@H](NC(=O)C1OC1C)CC2` (mixture of isomers): in data set [1] (setting [27]), the IC50 came out at 119 nM.
Regarding `COc1cc2c(c(OC)c1OC)-c1ccc(SC)c(=O)cc1[C@H](NC(=O)C1CC1C)CC2` (stereo not given in full), the half-inhibitory concentration (IC50) entry in [1] (splenocyte) was “Not Active”.
`COc1cc2c(c(OC)c1OC)-c1ccc(SC)c(=O)cc1[C@@H](NC(=O)c1cccc(CO[N+](=O)[O-])c1)CC2`: the solubility in [26] amounted to 10 µM.
The same measure, in the same setting: under `COc1cc2c(c(OC)c1OC)-c1ccc(OC)c(=O)cc1[C@@H](NC(C)=O)CC2` [COLCHICINE] stands 300 µM.
Take `C/C=C/C=C/C(=O)N[C@H]1CCc2cc(OC)c(OC)c(OC)c2-c2ccc(SC)c(=O)cc21`: the IC50 in data set [11] is 5.7 ng/mL (≈ 0.0122 µM); in data set [1] (setting [27]), 4 nM; in data set [20], 0.0407 µg/mL (≈ 0.087 µM).
For `COc1cc2c(c(OC)c1OC)-c1ccc([S+](C)[O-])c(=O)cc1[C@@H](NC(=O)C1CC1C)CC2` (stereo not given in full), the IC50 entry in data set [1] (splenocyte) is “Not Active”.
Same read-out and setting: to `COc1cc2c(c(OC)c1OC)-c1ccc(S(C)(=O)=O)c(=O)cc1[C@@H](NC(=O)C1CC1C)CC2` (stereo not given in full) belongs “Not Active”.
Turning to `C=C(C)/C=C(\CC)C(=O)N[C@H]1CCc2cc(OC)c(OC)c(OC)c2-c2ccc(SC)c(=O)cc21`, the IC50 in data set [1] (setting [27]) came out at 31 nM.
The same measure, in the same setting: to `C=CCC(=O)N[C@H]1CCc2cc(OC)c(OC)c(OC)c2-c2ccc(SC)c(=O)cc21` belongs 702 nM; to `C=CC(=C)C(=O)N[C@H]1CCc2cc(OC)c(OC)c(OC)c2-c2ccc(SC)c(=O)cc21`, 112 nM.
For `COc1cc2c(c(OC)c1OC)-c1ccc(SC)c(=O)cc1[C@@H](NC(=O)CCCO[N+](=O)[O-])CC2`, in data set [26], the solubility came out at 100 µM.
